Source: patent US20230159527A1, “COMPOUNDS AS BCL-2 INHIBITORS” (Fochon Pharmaceuticals, Ltd., priority 2020, published 2023)

Key:
RS4;11 cells = test: Cell proliferation assay, RS4;11 cells (MTS, 72 h); type: cell-based; details: Homo sapiens, RS4;11 cell proliferation
Method: MTS testing kit was purchased from Promega. The RPMI-1640, Fetal bovine serum and Penicillin-Streptomycin were purchased from Gibco. Dimethyl sulfoxide (DMSO) was purchased from Sigma.
To investigate whether a compound is able to inhibit the activity of Bcl-2 in cells, a mechanism-based assay using RS4;11 (ATCC® CRL-1873™) cell was developed. In this assay, inhibition of Bcl-2 was detected by the inhibition of RS4;11 cells proliferation. RS4;11 cells were cultured in culture flasks to 40-80% confluence in RPMI-1640 plus 10% fetal bovine serum. Cells were collected and plated onto 96-well plates at desired cell density (30000 cells/well). Plates were incubated overnight at 37° C., with 5% CO2 to adhere. Compounds were added to the plates, and the final compound concentrations were 10000, 3333, 1111, […], 41, 14, 4.6 and 1.5 nM. Plates plated with RS4;11 cells were placed at 37° C., with 5% CO2 for 72 h. 20 μl MTS/100 μl medium mixture solution were added to each well and incubate the plates for exactly 2 hours. The reaction was stopped by adding 25 μl 10% SDS per well. Measure absorbance at 490 nm and 650 nm (reference wavelength). IC50 was calculated using GraphPad Prism 5.0.

DoHH2 cells = test: Cell proliferation assay, DoHH2 cells (MTS, 120 h); type: cell-based; details: Homo sapiens, DOHH-2
Method: MTS testing kit was purchased from Promega (Madison, Wis., USA). The RPMI-1640, Fetal bovine serum and Penicillin-Streptomycin were purchased from BI (Biological Industries, Beit Haemek, Israel). Dimethyl sulfoxide (DMSO) was purchased from Sigma (St. Louis, Mo., USA). DoHH2 (DSMZ catalog #: ACC47) cells were cultured in RPMI-1640 supplemented with Penicillin-Streptomycin and 10% FBS.
To investigate whether a compound is able to inhibit the activity of BCL-2 in cells, a mechanism-based assay using DoHH2 lines was developed. In this assay, the inhibition of BCL-2 was reflected by the inhibition of cell proliferation of DoHH2 cells. Cells were plated into 96-well plates at the optimized cell density of 5000 cells/well. Plates were incubated at 37° C., with 5% CO2 for 4h. Compounds were serially diluted and added to the plates with the final concentrations of 10000, 3333.3, 1111.1, 370.4, 123.5, 41.2, 13.7, 4.6 and 1.5 nM. Plates were incubated at 37° C., with 5% CO2 for 120 h. 20 μl MTS was added into each well and the plates were incubated at 37° C., with 5% CO2 for exactly 2 h. The absorbance was measured by a microplate reader at 490 nm. IC50 was calculated using GraphPad Prism 5.0 software.

Row | SMILES | IC50 (RS4;11 cells) | IC50 (DoHH2 cells)
1 | CCS(=O)(CC)=NC1CCC(CNc2ncc(S(=O)(=O)NC(=O)c3ccc(N4CCC5(CC4)CC(N4CCC[C@@H]4c4ccccc4C(C)C)C5)cc3Oc3cnc4[nH]ccc4c3)cc2[N+](=O)[O-])CC1 (single isomer, unassigned) [Example A-13b, (R or S)-2-((1H-pyrrolo[2,3-b]pyridin-5-yl)oxy)-N-((6-(((4-((diethyl(oxo)-λ^6-sulfanylidene)amino)cyclohexyl)methyl)amino)-5-nitropyridin-3-yl)sulfonyl)-4-(2-(2-(2-isopropyl-phenyl)pyrrolidin-1-yl)-7-azaspiro [3.5]nonan-7-yl)benzamide] | ≤ 1 nM | ≤ 1 nM
2 | O=C(NS(=O)(=O)c1cnc(NCC2CCOCC2)c([N+](=O)[O-])c1)c1ccc(N2CCC3(CC2)CC(N2CCOC[C@H]2c2ccccc2C2CC2)C3)cc1Oc1cnc2[nH]ccc2c1 (single isomer, unassigned) [Example A-75, (R or S)-2-((1H-pyrrolo[2,3-b]pyridin-5-yl)oxy)-4-(2-(3-(2-cyclopropyl-phenyl)morpholino)-7-azaspiro[3.5]nonan-7-yl)-N-((5-nitro-6-(((tetra-hydro-2H-pyran-4-yl)methyl)amino)pyridin-3-yl)sulfonyl) benzamide] | ≤ 1 nM | ≤ 1 nM
3 | O=C(NS(=O)(=O)c1cnc(NCC2(F)CCOCC2)c([N+](=O)[O-])c1)c1ccc(N2CCC3(CC2)CC(N2CCC[C@H]2c2ccccc2C2CC2)C3)cc1Oc1cnc2[nH]ccc2c1 [Example A-32a, (S)-2-((1H-pyrrolo[2,3-b]pyridin-5-yl)oxy)-4-(2-(2-(2-cyclopropyl-phenyl)pyrrolidin-1-yl)-7-azaspiro [3.5]nonan-7-yl)-N-((6-(((4-fluoro-tetrahydro-2H-pyran-4-yl)methyl)amino)-5-nitropyridin-3-yl)sulfonyl)benzamide] | ≤ 1 nM | ≤ 1 nM
4 | CCS(=O)(CC)=NC1CCC(CNc2ncc(S(=O)(=O)NC(=O)c3ccc(N4CCC5(CC4)CC(N4CCC[C@@H]4c4ccccc4C4CC4)C5)cc3Oc3cnc4[nH]ccc4c3)cc2[N+](=O)[O-])CC1 (stereo partly drawn) [Example A-2b, (R)-2-((1H-pyrrolo[2,3-b]pyridin-5-yl)oxy)-4-(2-(2-(2-cyclopropylphenyl)pyrrolidin-1-yl)-7-azaspiro[3.5]nonan-7-yl)-N-((6-(((4-((diethyl(oxo)-λ^6-sulfanylidene)amino)cyclohexyl)methyl)amino)-5-nitropyridin-3-yl)sulfonyl)benzamide] | ≤ 1 nM | ≤ 1 nM
5 | O=C(NS(=O)(=O)c1cnc(NCC2CCOCC2)c([N+](=O)[O-])c1)c1ccc(N2CCC3(CC2)CC(N2CCNC[C@H]2c2ccccc2C2CC2)C3)cc1Oc1cnc2[nH]ccc2c1 (single isomer, unassigned) [Example A-36a, (R or S)-2-((1H-pyrrolo[2,3-b]pyridin-5-yl)oxy)-4-(2-(2-(2-cyclopropyl-phenyl)piperazin-1-yl)-7-azaspiro [3.5]nonan-7-yl)-N-((5-nitro-6-(((tetrahydro-2H-pyran-4-yl)methyl)amino)pyridin-3-yl)sulfonyl) benzamide] | ≤ 1 nM | 
6 | O=C(NS(=O)(=O)c1cnc(NCC2C3COCC23)c([N+](=O)[O-])c1)c1ccc(N2CCC3(CC2)CC(N2CCC[C@H]2c2ccccc2C2CC2)C3)cc1Oc1cnc2[nH]ccc2c1 (stereo partly drawn) [Example A-30a, 2-((1H-pyrrolo[2,3-b]pyridin-5-yl)oxy)-N-((6-(((3-oxabicyclo[3.1.0]hexan-6-yl)methyl)amino)-5-nitro-pyridin-3-yl)sulfonyl)-4-(2-((5)-2-(2-cyclopropylphenyl)pyrrolidin-1-yl)-7-azaspiro[3.5]nonan-7-yl) benzamide] | ≤ 1 nM | 
7 | CC(C)c1ccccc1[C@@H]1CCCN1C1CC2(CCN(c3ccc(C(=O)NS(=O)(=O)c4cnc(NCC5C6COCC56)c([N+](=O)[O-])c4)c(Oc4cnc5[nH]ccc5c4)c3)CC2)C1 (stereo in doubt) [Example A-27a, 2-((1H-pyrrolo[2,3-b]pyridin-5-yl)oxy)-N-((6-(((3-oxabicyclo[3.1.0]hexan-6-yl)methyl)amino)-5-nitro-pyridin-3-yl)sulfonyl)-4-(2-((5)-2-(2-isopropylphenyl)pyrrolidin-1-yl)-7-azaspiro[3.5]nonan-7-yl) benzamide] | ≤ 1 nM | 

More lines, main results first:

Row | IC50 (RS4;11 cells) | SMILES | IC50 (DoHH2 cells)
8 | ≤ 1 nM | CC(C)c1ccccc1[C@H]1CCCN1C1CC2(CCN(c3ccc(C(=O)NS(=O)(=O)c4cc([N+](=O)[O-])c(NCC5CCOCC5)cn4)c(Oc4cnc5[nH]ccc5c4)c3)CC2)C1 [Example B-4b, (R)-2-((1H-pyrrolo[2,3-b]pyridin-5-yl)oxy)-4-(2-(2-(2-isopropylphenyl)pyrrolidin-1-yl)-7-azaspiro [3.5]nonan-7-yl)-N-((4-nitro-5-(((tetrahydro-2H-pyran-4-yl)methyl)amino)pyridin-2-yl)sulfonyl) benzamide] | ≤ 1 nM
9 | ≤ 1 nM | Cc1nc(NC[C@H]2CC[C@](C)(O)CC2)c([N+](=O)[O-])cc1S(=O)(=O)NC(=O)c1ccc(N2CCC3(CC2)CC(N2CCOC[C@H]2c2ccccc2C(C)C)C3)cc1Oc1cnc2[nH]ccc2c1 (single isomer, unassigned) [Example A-131, 2-((1H-pyrrolo[2,3-b]pyridin-5-yl)oxy)-N-((6-((((1r,4r)-4-hydroxy-4-methylcyclohexyl)methyl)amino)-2-methyl-5-nitropyridin-3-yl)sulfonyl)-4-(2-((R or S)-3-(2-isopropylphenyl)morpholino)-7-azaspiro[3.5]nonan-7-yl) benzamide] | ≤ 1 nM
10 | ≤ 1 nM | CC(C)c1ccccc1[C@@H]1CCCN1C1CC2(CCN(c3ccc(C(=O)NS(=O)(=O)c4cc([N+](=O)[O-])c5c(n4)OC[C@H](Cc4ccccn4)N5)c(Oc4cnc5[nH]ccc5c4)c3)CC2)C1 (single isomer, unassigned) [Example B-38, 2-((1H-pyrrolo[2,3-b]pyridin-5-yl)oxy)-4-(2-((R or S)-2-(2-isopropylphenyl)pyrrolidin-1-yl)-7-azaspiro[3.5]nonan-7-yl)-N-(((S)-8-nitro-2-(pyridin-2-ylmethyl)-2,3-dihydro-1H-pyrido [2,3-b][1,4]oxazin-6-yl)sulfonyl) benzamide] | ≤ 1 nM
11 | ≤ 1 nM | O=C(NS(=O)(=O)c1cc([N+](=O)[O-])c2c(n1)OC[C@H](Cc1ccccn1)N2)c1ccc(N2CCC3(CC2)CC(N2CCC[C@H]2c2ccccc2C2CC2)C3)cc1Oc1cnc2[nH]ccc2c1 (single isomer, unassigned) [Example B-45, 2-((1H-pyrrolo[2,3-b]pyridin-5-yl)oxy)-4-(2-((R or S)-2-(2-cyclopropylphenyl)pyrrolidin-1-yl)-7-azaspiro[3.5]nonan-7-yl)-N-(((S)-8-nitro-2-(pyridin-2-ylmethyl)-2,3-dihydro-1H-pyrido [2,3-b][1,4]oxazin-6-yl)sulfonyl) benzamide] | ≤ 1 nM
12 | ≤ 1 nM | CC(C)c1ccccc1C1CCCN1C1CC2(CCN(c3ccc(C(=O)NS(=O)(=O)c4cc([N+](=O)[O-])c5c(n4)OC[C@H](C4CC4)N5)c(Oc4cnc5[nH]ccc5c4)c3)CC2)C1 (single isomer, unassigned) [Example B-31a, 2-((1H-pyrrolo[2,3-b]pyridin-5-yl)oxy)-N-(((S)-2-cyclopropyl-8-nitro-2,3-dihydro-1H-pyrido[2,3-b] [1,4]oxazin-6-yl)sulfonyl)-4-(2-((R or S)-2-(2-isopropylphenyl)pyrrolidin-1-yl)-7-azaspiro[3.5]nonan-7-yl)benzamide] | ≤ 1 nM
